Values after ≈ are worked out from the molar mass of the structure shown.

This data set is described as follows: physchem. In kind it is physicochemical. Conditions: fassif, pH 6.8, Solubility in FaSSIF µg/ml. The method, then:
Compound solubility determination
An amount of 3 mg solid compound with LC-MS purity ≥ 95% was required. This amount was split between 3 different glass vials (1.8 ml volume each), placing 1 mg compound into each one.
Organic solvents of HPLC grade were used. Ultra pure water (Milli-Q grade) was used. Buffers were prepared with ultra pure water and filtered using 0.45 […] cameo filters. The compositions of each solvent employed in this assay are described below (part III).
For each of the three vial samples prepared as described above, in which the amount of compound was totally dissolved, the following procedure was subsequently carried out: • a) A small amount (approx. 0.1mg) of additional solid compound was added to the vial to maintain an excess of the compound in the mixture in the form of undissolved solid. • b) The samples were magnetically stirred for 24 hr. If required, additional solid compound (0.1mg) was added to maintain excess of it and then the samples were stirred again. • c) Then the samples were filtered (Millipore Milex filters nylon 0.2 um) and three aliquots were taken (one from each of the three vials) and analysed by LC-MS. • d) The pH of the final solution in each sample was measured with a pH-meter (WTW pH330i and a pH-electrode Sentix 41).
All filtered aliquots were analysed by LC-MS. […]

As for `CC1=C(Cl)C(=O)C(CO)(c2ccc(Oc3ccc(OC(F)(F)F)cc3)cc2)CN1` (centres unmarked) [Example 1, 3-Chloro-5-(hydroxymethyl)-2-methyl-5-[4-({4-[(trifluoromethyl)oxy]phenyl}oxy)phenyl]-4(1H)-pyridinone], the solubility (as a rule, how much of the substance goes into solution per volume) lay in the range of 1 to 5 µg/mL (≈ 2.34 to 11.7 µM).

`Cc1[nH]c(C=NO)c(-c2ccc(Oc3ccc(OC(F)(F)F)cc3)cc2)c(=O)c1Cl` [Example 5, 5-Chloro-6-methyl-4-oxo-3-[4-({4-[(trifluoromethyl)oxy]phenyl}oxy)phenyl]-1,4-dihydro-2-pyridinecarbaldehyde oxime] displayed a solubility of 5 to 10 µg/mL (≈ 11.4 to 22.8 µM).

The values are drawn from patent EP1862459A1, “Novel heterocyclic compounds” (GLAXO GROUP LIMITED, priority 2006, dated 2007).
